Values of other authors in publication PMC4019989 (Clinical cancer research : an official journal of the …, 2009).

Test system: animals
Details: cited from earlier work

CC(C)C[C@H](NC(=O)[C@H](Cc1ccccc1)NC(=O)c1cnccn1)B(O)O [bortezomib]
Toxicity of consecutive-day dosing: excessive toxicity
